Values after ≈ are worked out from the molar mass of the structure shown.
What was measured:
MDCK [1] = experiment: Minimum cytotoxic concentration required to cause a microscopically detectable alteration of normal cell morphology in madin-Darby canine kidney cells (MDCK); format: functional, Canis lupus familiaris
MDCK [2] = experiment: Minimum inhibitory concentration required to reduce influenza A H2N2 virus induced cytopathogenicity by 50% in madin-Darby canine kidney cells (MDCK); format: functional; details: Canis lupus familiaris
MDCK [3] = experiment: Minimum inhibitory concentration required to reduce influenza A H3N2 (X31) virus induced cytopathogenicity by 50% in madin-Darby canine kidney cells (MDCK); format: functional; details: Canis lupus familiaris

For CCCN1CCC(C2C3CC4CC(C3)CC2C4)C1 (stereo unspecified), the MCC50 (MDCK [1]) was 140.9 µM, the MIC50 (MDCK [2]) was > 28.2 µM and the MIC50 (MDCK [3]) was > 28.2 µM.
For CN1CCC(C2C3CC4CC(C3)CC2C4)C1 (stereo unspecified), the MCC50 (MDCK [1]) was >156.4 µM, the MIC50 (MDCK [2]) was 18.8 µM (≈ 4.12 µg/mL) and the MIC50 (MDCK [3]) was 18.8 µM (≈ 4.12 µg/mL).
In the case of CCN1CCC(C2C3CC4CC(C3)CC2C4)C1 (stereo unspecified), the MCC50 (MDCK [1]) is reported as 148.2 µM, the MIC50 (MDCK [2]) is reported as > 29.7 µM and the MIC50 (MDCK [3]) is reported as > 29.7 µM.
CCN(CC)CCN1CCC(C2C3CC4CC(C3)CC2C4)C1=O (stereo unspecified) gave an MCC50 (MDCK [1]) of 92 µM, an MIC50 (MDCK [2]) of 11.1 µM (≈ 3.54 µg/mL) and an MIC50 (MDCK [3]) of 11.1 µM (≈ 3.54 µg/mL).
CN(C)CCN1CCC(C2C3CC4CC(C3)CC2C4)C1=O (stereo unspecified) was tested, and the MCC50 (MDCK [1]) was 122.4 µM, the MIC50 (MDCK [2]) was 14.7 µM (≈ 4.27 µg/mL) and the MIC50 (MDCK [3]) was 14.7 µM (≈ 4.27 µg/mL).
C1CC(C2C3CC4CC(C3)CC2C4)CN1 (stereo unspecified) gave an MCC50 (MDCK [1]) of 124.4 µM, an MIC50 (MDCK [2]) of 0.6 µM (≈ 0.123 µg/mL) and an MIC50 (MDCK [3]) of 5 µM (≈ 1.03 µg/mL).
Work on C1CCN(CCN2CCC(C3C4CC5CC(C4)CC3C5)C2)CC1 (stereo unspecified) yielded an MCC50 (MDCK [1]) of 14.6 µM, an MIC50 (MDCK [2]) of 1.7 µM (≈ 0.538 µg/mL) and an MIC50 (MDCK [3]) of 0.35 µM (≈ 0.111 µg/mL).
CCN(CC)CCN1CCC(C2C3CC4CC(C3)CC2C4)C1 (stereo unspecified) was tested, and the MCC50 (MDCK [1]) was 74.5 µM, the MIC50 (MDCK [2]) was 8.9 µM (≈ 2.71 µg/mL) and the MIC50 (MDCK [3]) was > 14.9 µM.
In the case of CCCCN1CCC(C2C3CC4CC(C3)CC2C4)C1 (stereo unspecified), the MCC50 (MDCK [1]) is reported as 134.3 µM, the MIC50 (MDCK [2]) is reported as > 26.9 µM and the MIC50 (MDCK [3]) is reported as > 26.9 µM.
In the case of CN(C)CCN1CCC(C2C3CC4CC(C3)CC2C4)C1 (stereo unspecified), the MCC50 (MDCK [1]) is reported as 78.7 µM, the MIC50 (MDCK [2]) is reported as 0.38 µM (≈ 0.105 µg/mL) and the MIC50 (MDCK [3]) is reported as 9.4 µM (≈ 2.6 µg/mL).
With NC12CC3CC(CC(C3)C1)C2 [AMANTADINE] the MCC50 (MDCK [1]) was >533.3 µM, the MIC50 (MDCK [2]) was 2.6 µM (≈ 0.393 µg/mL) and the MIC50 (MDCK [3]) was 12.8 µM (≈ 1.94 µg/mL).
NC(=O)c1ncn([C@@H]2O[C@H](CO)[C@@H](O)[C@H]2O)n1 [RIBAVIRIN] was tested, and the MCC50 (MDCK [1]) was >1024.6 µM, the MIC50 (MDCK [2]) was 615 µM (≈ 150 µg/mL) and the MIC50 (MDCK [3]) was 123 µM (≈ 30 µg/mL).

From ChEMBL document CHEMBL1133908, “Novel 3-(2-adamantyl)pyrrolidines with potent activity against influenza A virus-identification of aminoadamantane derivatives bearing two pharmacophoric amine groups” (2001)
